{"source": "patent US8987467B2", "about": "“Substituted pyrazole azetidines as sphingosine receptor modulators” (Allergan, Inc., priority 2013, dated 2015)", "note": "pEC50: −log10 of the molar value."}
{"biological_target": "T1, human S1P1 receptor (Homo sapiens, UniProt P21453)", "T1 construct": "expressed in transfected cells; membranes used", "T1 sequence (P21453 whole entry)": "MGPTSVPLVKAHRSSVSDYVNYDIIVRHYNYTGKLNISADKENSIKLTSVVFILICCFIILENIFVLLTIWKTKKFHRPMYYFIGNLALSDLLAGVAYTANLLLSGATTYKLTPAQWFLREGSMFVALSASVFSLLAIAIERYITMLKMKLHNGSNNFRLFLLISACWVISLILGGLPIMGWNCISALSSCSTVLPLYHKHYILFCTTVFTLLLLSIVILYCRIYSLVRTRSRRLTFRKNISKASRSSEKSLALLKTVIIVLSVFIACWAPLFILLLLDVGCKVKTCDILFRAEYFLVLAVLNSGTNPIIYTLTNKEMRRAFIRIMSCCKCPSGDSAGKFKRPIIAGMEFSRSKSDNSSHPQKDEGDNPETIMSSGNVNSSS", "assay": "GTP γ35S binding assay for S1P1 activity", "assay_type": "biochemical", "conditions": "membranes of cells stably expressing the S1P1 receptor; test concentrations 0.08 to 5,000 nM; 30 min at 25° C.; read-out: S1P1 EC50 (Activity potency: S1P1 receptor from GTP γ35S)", "protocol": "Compounds were tested for S1P1 activity using the GTP γ^35S binding assay. These compounds may be assessed for their ability to activate or block activation of the human S1P1 receptor in cells stably expressing the S1P1 receptor.\nGTP γ^35S binding was measured in the medium containing (mM) HEPES 25, pH 7.4, MgCl2 10, NaCl 100, dithiothreitol 0.5, digitonin 0.003%, 0.2 nM GTP γ^355, and 5 μg membrane protein in a volume of 150 μl. Test compounds were included in the concentration range from 0.08 to 5,000 nM unless indicated otherwise. Membranes were incubated with 100 μM 5′-adenylylimidodiphosphate for 30 min, and subsequently with 10 μM GDP for 10 min on ice. Drug solutions and membrane were mixed, and then reactions were initiated by adding GTP γ^355 and continued for 30 min at 25° C. Reaction mixtures were filtered over Whatman GF/B filters under vacuum, and washed three times with 3 mL of ice-cold buffer (HEPES 25, pH 7.4, MgCl2 10 and NaCl 100). Filters were dried and mixed with scintillant, and counted for ^35S activity using a β-counter. Agonist-induced GTP γ^355 binding was obtained by subtracting that in the absence of agonist. Binding data were analyzed using a non-linear regression method. In case of antagonist assay, the reaction mixture contained 10 nM S1P in the presence of test antagonist at concentrations ranging from 0.08 to 5000 nM."}
{"smiles": "CCCN1N=C(c2nc(-c3ccc(CN4CC(C(=O)O)C4)cc3)no2)CC1c1ccccc1", "note": "(stereo not shown) [Compound 6, 1-{4-[5-(5-phenyl-1-propyl-4,5-dihydro-1H-pyrazol-3-yl)-1,2,4-oxadiazol-3-yl]benzyl}azetidine-3-carboxylic acid]", "pEC50": 7.12}
{"smiles": "CCN1N=C(c2nc(-c3cc(F)c(CN4CC(C(=O)O)C4)c(F)c3)no2)CC1c1ccccc1", "note": "(stereo not shown) [Compound 4, 1-{4-[5-(1-ethyl-5-phenyl-4,5-dihydro-1H-pyrazol-3-yl)-1,2,4-oxadiazol-3-yl]-2,6-difluorobenzyl}azetidine-3-carboxylic acid]", "pEC50": 7.29}
{"smiles": "CCN1N=C(c2nc(-c3ccc(CN4CC(C(=O)O)C4)cc3)no2)CC1c1ccccc1", "note": "(stereo not shown) [Compound 1, 1-{4-[5-(1-ethyl-5-phenyl-4,5-dihydro-1H-pyrazol-3-yl)-1,2,4-oxadiazol-3-yl]benzyl}azetidine-3-carboxylic acid]", "pEC50": 6.60}
{"smiles": "CCc1cc(-c2noc(C3=NN(CC)C(c4ccccc4)C3)n2)ccc1CN1CC(C(=O)O)C1", "note": "(stereo not shown) [Compound 5, 1-{2-ethyl-4-[5-(1-ethyl-5-phenyl-4,5-dihydro-1H-pyrazol-3-yl)-1,2,4-oxadiazol-3-yl]benzyl}azetidine-3-carboxylic acid]", "pEC50": 7.62}
